“Also recorded” adds a separate entry of the source.
Molecular target: T1, rat homomeric P2X4 receptors (Rattus norvegicus, UniProt P51577)
T1 construct: expressed in transfected cells
T1 sequence (P51577 1-388): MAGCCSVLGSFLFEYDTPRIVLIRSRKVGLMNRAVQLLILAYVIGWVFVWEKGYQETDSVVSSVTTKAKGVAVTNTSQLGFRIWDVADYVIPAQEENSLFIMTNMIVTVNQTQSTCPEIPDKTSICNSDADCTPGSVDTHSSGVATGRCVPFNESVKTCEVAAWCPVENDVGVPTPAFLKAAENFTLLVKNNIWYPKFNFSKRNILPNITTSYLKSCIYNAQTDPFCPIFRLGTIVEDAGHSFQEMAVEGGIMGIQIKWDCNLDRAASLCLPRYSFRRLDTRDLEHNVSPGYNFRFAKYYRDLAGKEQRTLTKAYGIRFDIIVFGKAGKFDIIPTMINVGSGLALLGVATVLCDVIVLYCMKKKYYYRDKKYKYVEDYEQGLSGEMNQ
Test: Whole-cell patch clamp, rat homomeric P2X4 receptors
Assay type: cell-based
Settings: 1 μM; ATP
Procedure: FIG. 4. […] A. Example traces of responses induced by 10 μM ATP applied for 2 s every 2 min to HEK cells expressing rat homomeric P2X2 receptors in the presence and absence of 1 μM AppNHppA. B. Comparison of currents induced by the full agonist of P2X2 receptors, ATP, in the presence of 1 μM AppNHppA (right) and absence (left). C. The time course of the current in the presence and absence of 1 μM AppNHppA. D. Comparison of currents induced by the full agonist of rat homomeric P2X4 and P2X7 receptors, ATP, in the presence of 1 μM AppNHppA (right) and absence (left). Experiments were performed as in FIG. 2.
Trigeminal, nodose, DRG neurons or HEK cells were recorded in the whole-cell configuration while being continuously superfused (at 2 mL/min) with control solution containing (in mM): 152 NaCl, 5 KCl, 1 MgCl2, 2 CaCl2, 10 glucose, and 10 HEPES; pH was adjusted to 7.4 with NaOH and osmolarity was adjusted to 320 mOsM with glucose. […] Responses to selective P2X3 receptor agonist α,β-methylene-ATP (α,β-meATP; resistant to ectoATPase hydrolysis, Sigma-Aldrich) were measured using an EPC-9 amplifier and HEKA Patch Master software (HEKA Electronik, Germany). Cells were voltage-clamped at −70 mV. In most cells, series resistance was compensated by 80%. […]

## Nc1ncnc2c1ncn2[C@@H]1O[C@H](COP(=O)(O)OP(=O)(O)NP(=O)(O)OP(=O)(O)OC[C@H]2O[C@@H](n3cnc4c(N)ncnc43)C(O)C2O)C(O)C1O (stereo in doubt) [AppNHppA]
  effect on P2X4 receptor-mediated currents: not observed to produce any effects; also recorded: non-inhibitory effect

— patent US20150119352A1, “DINUCELOSIDE POLYPHOSPHATES FOR THE TREATMENT OF PAIN” (GlobalAcorn Ltd., priority 2012, published 2015)
